Here are results for one molecule from PMC7320145, “Substrate Channeling via a Transient Protein-Protein Complex: The case of D-Glyceraldehyde-3-Phosphate Dehydrogenase and L-Lactate Dehydrogenase” (Scientific Reports, 2020).

For assay [1], the target named is T1, rmGAPDH (rabbit muscle GAPDH) (Oryctolagus cuniculus, UniProt P46406).
T1 construct: natural full-length enzyme from rabbit muscle, homotetramer; purified in-house by established protocols or purchased from Sigma; apo-enzyme
As to the kind of experiment: fluorescence titration, average of four read-outs (protein quenching, NADH quenching, FRET, anisotropy). The following applies: in terms of NADH binding sites on each tetramer; average over sites (enzyme with negative cooperativity). The text has this: fluorescence titration, average of four read-outs (protein quenching, NADH quenching, FRET, anisotropy) on rmGAPDH (rabbit muscle GAPDH)

Assay [2] deals with T2, byGAPDH (baker's yeast GAPDH).
T2 construct: gene TDH3; purified in-house or purchased from Sigma; apo-enzyme
Described as above. The arrangement: species or system Saccharomyces cerevisiae. The following applies: in terms of NADH binding sites on each tetramer. The text has this:
fluorescence titration, average of four read-outs (protein quenching, NADH quenching, FRET, anisotropy) on byGAPDH (baker's yeast GAPDH)

The structures appear in SMILES notation.

T1 sequence (P46406 whole entry): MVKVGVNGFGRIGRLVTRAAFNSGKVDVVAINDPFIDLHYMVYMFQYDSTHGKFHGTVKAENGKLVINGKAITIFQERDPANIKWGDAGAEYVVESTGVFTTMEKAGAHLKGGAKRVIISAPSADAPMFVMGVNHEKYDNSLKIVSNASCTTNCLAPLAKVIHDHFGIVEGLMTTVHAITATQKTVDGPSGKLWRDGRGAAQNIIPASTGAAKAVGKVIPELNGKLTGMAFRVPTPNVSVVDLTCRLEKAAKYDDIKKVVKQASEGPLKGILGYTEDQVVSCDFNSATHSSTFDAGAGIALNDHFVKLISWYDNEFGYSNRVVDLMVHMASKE

With `NC(=O)C1=CN([C@@H]2O[C@H](COP(=O)(O)OP(=O)(O)OC[C@H]3O[C@@H](n4cnc5c(N)ncnc54)[C@H](O)[C@@H]3O)[C@@H](O)[C@H]2O)C=CC1` [NADH], in assay [1], the “rmGAPDH-NADH KD fluorescence measurements” value is given as 0.8 ± 0.06 micro Molar. The “byGAPDH-NADH KD fluorescence measurements” value in assay [2] was determined as 8.2 ± 0.5 micro Molar.
